From patent US20110027324A1, “O-DESMETHYL-V[…] TREATING MAJOR DEPRESSIVE DISORDER” (Wyeth LLC, priority 2007, published 2011)

How the values were obtained:
Type in all cases: in vivo, human
[1] = tested on: subjects with a primary diagnosis of MDD; assay: MDD Study No. 3: safety evaluation (discontinuations, AEs); conditions: count; for Adverse Event Abnormal Dreams, subjects / Adverse Event Vomiting, subjects: placebo 3 (2); for Adverse Event Constipation, subjects: placebo 4 (3); for Adverse Event Anorexia, subjects / Adverse Event Flu Syndrome, subjects: placebo 5 (3); for Adverse Event Asthenia, subjects / Adverse Event Insomnia, subjects: placebo 6 (4); for Adverse Event Somnolence, subjects: placebo 8 (5); for Adverse Event Nausea, subjects: placebo 14 (9)
Method: The safety of the two doses was determined using the same assessments as in Example 1.

[2] = tested on: subjects with a primary diagnosis of MDD; assay: MDD Study No. 1: safety evaluation (AEs, DESS, laboratory, vital signs, ECG); conditions: for subjects with AEs as reason for study discontinuation: double-blind on-therapy period, placebo 3%; for subjects reporting serious or noteworthy AEs: none in placebo; for subjects with AEs of clinical importance: placebo 4
Method: On study day −1 (baseline), eligible subjects were randomly assigned to 1 of 2 fixed doses of ODV (50 or 100 mg/day) or to placebo for the 8-week double-blind treatment period. A 7-day taper period after the end of double-blind treatment was recommended but may have been omitted, shortened, or lengthened at the discretion of the investigator. Subjects assigned to the ODV 50 mg dose group received their maintenance dose beginning on study day 1 and continued this regimen until study day 56 or early withdrawal. For the taper period (days 1 through 7 after the end of the double-blind treatment period), they received 0 mg. Subjects assigned to the ODV 100 mg dose group were titrated to their maintenance dose. On study days 1 through 7 they received ODV 50 mg/day. Beginning on study day 8, they received their assigned dose of ODV 100 mg/day and continued on this regimen until study day 56 or early withdrawal. For the taper period (days 1 through 7 after the end of the double-blind treatment period), they received ODV 50 mg/day. Subjects assigned to placebo received their maintenance dose (0 mg) from study day 1 through day 56 or early withdrawal, and also received 0 mg during the taper period.
The safety of the two doses was determined using the following assessments: monitoring of adverse events (AEs), withdrawal because of AEs, concomitant medications, physical examinations, standard 12-lead electrocardiograms (ECGs), vital signs (supine and standing pulse rate and blood pressure (BP); body weight), laboratory determinations (hematology, blood chemistry, and urinalysis; free thyroxine index, including total thyroxine and triiodothyronine, and the β-HCG), and the Discontinuation-Emergent Signs and Symptoms (DESS) checklist.

[3] = tested on: subjects with a primary diagnosis of MDD; assay: MDD Study No. 3: efficacy evaluation, randomized double-blind placebo-controlled study; conditions: for CGI-S score, Δ from Baseline: baseline 4.3, placebo −1.10; for HAM-D6, Δ from Baseline: placebo −4.82; for MADRS total score, Δ from Baseline: placebo −11.0
Method: This example describes the results of a third multicenter, randomized, double-blind, placebo-controlled, parallel-group study that was also designed to evaluate the efficacy and safety of 50 and 100 mg/day ODV for treating MDD.
Subjects were male or female adults that met the same criteria as the subjects in Example 1. The administration protocols for 50 or 100 mg/day and placebo groups were the same as in Example 1.
The primary and secondary outcomes were the same as in Example 1 as were the statistical methods. A Global F-test was also used to analyze the results. The purpose of this test was to compare the two fixed doses with placebo to control for Type-I error. Statistical significance is met if the p-value for the Global F-test <0.05, followed by un-adjusted pairwise comparison between either dose and placebo at 0.05 significance level.

[4] = 50 mg group, number of subjects
[5] = 100 mg group, number of subjects

CN(C)CC(c1ccc(O)cc1)C1(O)CCCCC1 (centres unmarked) [ODV, 1-[2-(dimethylamino)-1-(4-phenol)ethyl]-cyclohexanol]
Discontinued, reason Adverse Event, subjects ([1]; 50 mg, n = 148): 8 (5)
Adverse Event Abnormal Dreams, subjects ([1]; 50 mg, n = 148): 5 (3)
Adverse Event Vomiting, subjects ([1]; 50 mg, n = 148): 2 (1)
Adverse Event Constipation, subjects ([1]; 50 mg, n = 148): 9 (6)
Adverse Event Anorexia, subjects ([1]; 50 mg, n = 148): 14 (10)
Adverse Event Flu Syndrome, subjects ([1]; 50 mg, n = 148): 6 (4)
Adverse Event Asthenia, subjects ([1]; 50 mg, n = 148): 12 (8)
Adverse Event Insomnia, subjects ([1]; 50 mg, n = 148): 20 (14)
Adverse Event Somnolence, subjects ([1]; 50 mg, n = 148): 14 (10)
Adverse Event Nausea, subjects ([1]; 50 mg, n = 148): 33 (22)
Discontinued, reason Adverse Event, subjects ([1]; 100 mg, n = 150): 11 (7)
Adverse Event Abnormal Dreams, subjects ([1]; 100 mg, n = 150): 4 (3)
Adverse Event Vomiting, subjects ([1]; 100 mg, n = 150): 6 (4)
Adverse Event Constipation, subjects ([1]; 100 mg, n = 150): 10 (7)
Adverse Event Anorexia, subjects ([1]; 100 mg, n = 150): 14 (9)
Adverse Event Flu Syndrome, subjects ([1]; 100 mg, n = 150): 10 (7)
Adverse Event Asthenia, subjects ([1]; 100 mg, n = 150): 18 (12)
Adverse Event Insomnia, subjects ([1]; 100 mg, n = 150): 26 (17)
Adverse Event Somnolence, subjects ([1]; 100 mg, n = 150): 18 (12)
Adverse Event Nausea, subjects ([1]; 100 mg, n = 150): 35 (23)
most common (incidence≧5%) taper/poststudy-emergent AEs ([2]; 50 mg group): diarrhea, nausea, abnormal dreams, dizziness, and hostility
subjects with AEs as reason for study discontinuation ([2]; 50 mg group, 151 subjects): 3%
p-value, mean DESS scores compared with placebo ([2]; 50 mg group, first week of the taper period): 0.001
subjects with clinically important AE hypertension [2, 4]: 2
subjects with clinically important AE hypotension [2, 4]: 2
subjects with laboratory values considered clinically important by the medical monitor [2, 4]: 2
subjects reporting serious or noteworthy AEs [2, 4]: 5
subjects with AEs of clinical importance [2, 4]: 13
subjects with AEs as reason for study discontinuation ([2]; 100 mg group, 148 subjects): 7%
subjects with clinically important AE hypertension [2, 5]: 1
subjects with laboratory values considered clinically important by the medical monitor [2, 5]: 3
subjects reporting serious or noteworthy AEs [2, 5]: 4
subjects with AEs of clinical importance [2, 5]: 10
subjects with clinically important vital signs results ([2]; ODV treated subjects, both doses, 3 elevated supine BP, 1 postural hypotension): four
clinically important findings for ECGs or ECG-related AEs ([2]; all subjects, 50 and 100 mg/day): None of the subjects had clinically important findings for ECGs
HAM-D17 total score, Diff. versus Placebo (95% CI) ([3]; 50 mg/day, LOCF): 1.1 (−0.6, 2.7)
HAM-D17 total score, Diff. versus Placebo (95% CI) ([3]; 50 mg/day, MMRM): 1.4 (−0.0, 2.8)
HAM-D17 total score, Diff. versus Placebo (95% CI) ([3]; 50 mg/day, OC): 1.8 (−0.1, 3.6)
CGI-S score, Δ from Baseline ([3]; 50 mg/day): −1.25
HAM-D6, Δ from Baseline ([3]; 50 mg/day, baseline 12.8): −5.41
MADRS total score, Δ from Baseline ([3]; 50 mg/day, baseline 30.1): −12.7
HAM-D17 total score, Diff. versus Placebo (95% CI) ([3]; 100 mg/day, LOCF): 1.8 (0.2, 3.4)
HAM-D17 total score, Diff. versus Placebo (95% CI) ([3]; 100 mg/day, MMRM): 2.2 (0.7, 3.6)
HAM-D17 total score, Diff. versus Placebo (95% CI) ([3]; 100 mg/day, OC): 2.9 (1.0, 4.7)
CGI-S score, Δ from Baseline ([3]; 100 mg/day): −1.44
HAM-D6, Δ from Baseline ([3]; 100 mg/day, baseline 12.9): −6.15
MADRS total score, Δ from Baseline ([3]; 100 mg/day, baseline 30.0): −14.4
